Laboratory results as given in the NIST ThermoML archive (doi:10.1021/je4009238).

How the values were obtained:
[1] = xn = mol fraction of the nth substance listed; conditions: 101 kPa, Liquid
[2] = refractive index (Na D-line) (dimensionless); xn = mol fraction of the nth substance listed; conditions: 101 kPa, Liquid

CCCCn1cc[n+](C)c1.[Cl-] [1-butyl-3-methylimidazolium chloride] + CN(C)C=O
Conditions	mass density, [1] [kg/m3]	refractive index, [2]	viscosity, [1] [mPa·s]
288.15 K, x1 = 0.0086	957.7	1.43562	1.064
288.15 K, x1 = 0.0172	961.03	1.43757	1.13
288.15 K, x1 = 0.026	964.09	1.4401	1.234
288.15 K, x1 = 0.0351	967.36	1.44223	1.358
288.15 K, x1 = 0.0443	970.51	1.44442	1.441
288.15 K, x1 = 0.0541	973.65	1.4466	1.571
288.15 K, x1 = 0.0638	976.87	1.44861	1.678
288.15 K, x1 = 0.0738	979.65	1.45083	1.865
288.15 K, x1 = 0.0841	982.76	1.45282	2.004
288.15 K, x1 = 0.0947	985.77	1.45492	2.24
288.15 K, x1 = 0.1056	988.72	1.45766	2.397
288.15 K, x1 = 0.1167	991.56	1.45909	2.589
288.15 K, x1 = 0.1282	994.51	1.46111	2.95
288.15 K, x1 = 0.1399	997.33	1.46315	3.196
288.15 K, x1 = 0.152	1000.15	1.46516	3.685
298.15 K, x1 = 0.0086	948.35	1.43088	0.9285
298.15 K, x1 = 0.0172	951.98	1.43313	0.9836
298.15 K, x1 = 0.026	954.91	1.43537	1.069
298.15 K, x1 = 0.0351	958.49	1.43761	1.173
298.15 K, x1 = 0.0443	961.51	1.4398	1.234
298.15 K, x1 = 0.0541	964.75	1.44206	1.343
298.15 K, x1 = 0.0638	968.06	1.44422	1.444
298.15 K, x1 = 0.0738	970.86	1.44638	1.59
298.15 K, x1 = 0.0841	974.08	1.44852	1.679
298.15 K, x1 = 0.0947	977.24	1.45063	1.8
298.15 K, x1 = 0.1056	980.16	1.45271	1.978
298.15 K, x1 = 0.1167	983.01	1.45475	2.126
298.15 K, x1 = 0.1282	986.1	1.45676	2.379
298.15 K, x1 = 0.1399	988.96	1.45871	2.582
298.15 K, x1 = 0.152	991.87	1.46064	2.907
308.15 K, x1 = 0.0086	938.9	1.42611	0.8223
308.15 K, x1 = 0.0172	942.61	1.42836	0.8668
308.15 K, x1 = 0.026	945.63	1.4306	0.9394
308.15 K, x1 = 0.0351	949.34	1.43285	1.022
308.15 K, x1 = 0.0443	952.42	1.43505	1.097
308.15 K, x1 = 0.0541	955.77	1.43731	1.166
308.15 K, x1 = 0.0638	959.15	1.43948	1.239
308.15 K, x1 = 0.0738	962.05	1.44163	1.362
308.15 K, x1 = 0.0841	965.29	1.44378	1.432
308.15 K, x1 = 0.0947	968.56	1.4459	1.524
308.15 K, x1 = 0.1056	971.53	1.44799	1.665
308.15 K, x1 = 0.1167	974.49	1.45003	1.782
308.15 K, x1 = 0.1282	977.64	1.45205	1.963
308.15 K, x1 = 0.1399	980.61	1.45401	2.135
308.15 K, x1 = 0.152	983.6	1.45595	2.351
318.15 K, x1 = 0.0086	929.42	1.42147	0.7351
318.15 K, x1 = 0.0172	933.2	1.42379	0.772
318.15 K, x1 = 0.026	936.41	1.42611	0.8352
318.15 K, x1 = 0.0351	940.14	1.42842	0.8995
318.15 K, x1 = 0.0443	943.38	1.43069	0.9641
318.15 K, x1 = 0.0541	946.75	1.43303	1.026
318.15 K, x1 = 0.0638	950.28	1.43526	1.078
318.15 K, x1 = 0.0738	953.24	1.43748	1.175
318.15 K, x1 = 0.0841	956.58	1.4397	1.241
318.15 K, x1 = 0.0947	959.89	1.44188	1.311
318.15 K, x1 = 0.1056	962.99	1.44402	1.424
318.15 K, x1 = 0.1167	966.03	1.44612	1.518
318.15 K, x1 = 0.1282	969.28	1.4482	1.651
318.15 K, x1 = 0.1399	972.26	1.45021	1.796
318.15 K, x1 = 0.152	975.4	1.45219	1.944

CCn1cc[n+](C)c1.[Cl-] [1-ethyl-3-methylimidazolium chloride] + CN(C)C=O
Conditions	mass density, [1] [kg/m3]	refractive index, [2]	viscosity, [1] [mPa·s]
288.15 K, x1 = 0.0102	958.86	1.43565	1.023
288.15 K, x1 = 0.0203	963.47	1.43836	1.156
288.15 K, x1 = 0.031	968.07	1.44091	1.188
288.15 K, x1 = 0.0417	972.24	1.44354	1.327
288.15 K, x1 = 0.0524	976.38	1.44588	1.399
288.15 K, x1 = 0.0635	980.82	1.44822	1.535
288.15 K, x1 = 0.0752	984.98	1.45067	1.765
288.15 K, x1 = 0.0867	989.33	1.45308	1.867
288.15 K, x1 = 0.0988	993.32	1.45542	2.123
288.15 K, x1 = 0.1107	997.33	1.45784	2.25
288.15 K, x1 = 0.1232	1001.39	1.46021	2.429
288.15 K, x1 = 0.1361	1005.6	1.46253	2.766
288.15 K, x1 = 0.1489	1009.6	1.46477	3.002
288.15 K, x1 = 0.1626	1013.74	1.46721	3.293
288.15 K, x1 = 0.1759	1017.7	1.46942	3.645
298.15 K, x1 = 0.0102	949.52	1.43106	0.8935
298.15 K, x1 = 0.0203	954.18	1.43346	1.007
298.15 K, x1 = 0.031	958.86	1.4364	1.03
298.15 K, x1 = 0.0417	963.18	1.43872	1.147
298.15 K, x1 = 0.0524	967.27	1.44144	1.198
298.15 K, x1 = 0.0635	971.86	1.44361	1.312
298.15 K, x1 = 0.0752	976.05	1.44626	1.501
298.15 K, x1 = 0.0867	980.59	1.44855	1.577
298.15 K, x1 = 0.0988	984.64	1.4511	1.784
298.15 K, x1 = 0.1107	988.67	1.45354	1.879
298.15 K, x1 = 0.1232	992.88	1.45597	2.014
298.15 K, x1 = 0.1361	997.07	1.45827	2.278
298.15 K, x1 = 0.1489	1001.24	1.46065	2.453
298.15 K, x1 = 0.1626	1005.4	1.46302	2.672
298.15 K, x1 = 0.1759	1009.49	1.46536	2.922
308.15 K, x1 = 0.0102	940.08	1.42654	0.7902
308.15 K, x1 = 0.0203	944.84	1.42888	0.8895
308.15 K, x1 = 0.031	949.62	1.43189	0.9058
308.15 K, x1 = 0.0417	954.02	1.43416	1.004
308.15 K, x1 = 0.0524	958.21	1.43691	1.045
308.15 K, x1 = 0.0635	962.87	1.43896	1.139
308.15 K, x1 = 0.0752	967.15	1.4419	1.297
308.15 K, x1 = 0.0867	971.78	1.44372	1.355
308.15 K, x1 = 0.0988	975.93	1.44678	1.527
308.15 K, x1 = 0.1107	980.02	1.44907	1.625
308.15 K, x1 = 0.1232	984.31	1.45167	1.705
308.15 K, x1 = 0.1361	988.59	1.45406	1.916
308.15 K, x1 = 0.1489	992.84	1.45621	2.051
308.15 K, x1 = 0.1626	997.09	1.45888	2.251
308.15 K, x1 = 0.1759	1001.24	1.46102	2.406
318.15 K, x1 = 0.0102	930.6	1.42218	0.7059
318.15 K, x1 = 0.0203	935.4	1.4245	0.794
318.15 K, x1 = 0.031	940.37	1.4275	0.8045
318.15 K, x1 = 0.0417	944.85	1.42977	0.8901
318.15 K, x1 = 0.0524	949.12	1.43252	0.923
318.15 K, x1 = 0.0635	953.87	1.43477	1.002
318.15 K, x1 = 0.0752	958.24	1.43765	1.136
318.15 K, x1 = 0.0867	962.96	1.43964	1.181
318.15 K, x1 = 0.0988	967.2	1.44253	1.327
318.15 K, x1 = 0.1107	971.44	1.445	1.404
318.15 K, x1 = 0.1232	975.73	1.44746	1.468
318.15 K, x1 = 0.1361	980.13	1.44986	1.64
318.15 K, x1 = 0.1489	984.44	1.45192	1.748
318.15 K, x1 = 0.1626	988.83	1.45477	1.905
318.15 K, x1 = 0.1759	993.01	1.45679	2.02
